Measured values: patent US7816347B2, “Pharmaceutical compositions comprising NEP-inhibitors, inhibitors of the endogenous endothelin producing system and HMG CoA reductase inhibitors” (Solvay Pharmaceuticals GmbH, priority 2004, dated 2010)
Where two headings read alike, the source gives them in different places. Marks after values point to notes of the source that are not given here.

Assays:
[1] = test system: spontaneously hypertensive rat; conditions: in food
Description: Male spontaneously hypertensive rats (=SHR; insulin resistant strain from Charles River; aged 6 months) were equipped with telemetry transmitters for continuous monitoring of blood pressure and heart rate (TA11PA-C40, DSI, USA). Telemetry transmitters for continuous monitoring of blood pressure, heart rate and locomotor activity (TA11PA-C40, Data Sciences, USA) were implanted intraabdominally under inhalative halothane anesthesia. A midline abdominal incision was made, and the abdominal aorta was visualized by removal of retroperitoneal fat and connective tissue. A ligature was placed caudal of the renal arteries, the aorta was punctured with a 22G needle, and the catheter was advanced into the aorta. The entry point was sealed with tissue adhesive (Vetbond™, 3M, USA), the ligature was removed, and the abdominal incision was closed. Measurements of aortic pressure were taken every 5 minutes (=min) for 4 seconds (=s) each at a sampling rate of 500 Hz, and were corrected for the corresponding ambient pressure (ambient pressure monitor, C11PR, Data Sciences, USA).
In a further study performed with a new batch of SHR equipped with telemetry-transmitters as described above, the animals were divided into two groups receiving the HMG CoA reductase inhibitor atorvastatin or a combination of atorvastatin+daglutril. Compounds were mixed into the food, and the daily drug intake was measured by weighing the unconsumed food four times weekly. Intended daily doses were 40 mg/kg/day of atorvastatin and in addition, in the combination group, 100 mg/kg/day of daglutril.
Concentrations of atorvastatin and daglutril in the food were adjusted once per week.
For the statistical analysis, the effects of atorvastatin and atorvastatin+daglutril were calculated by subtracting the baseline value (pre) measured on the last day prior to the start of treatment (day 3) from that measured on day 25 (i.e. on the penultimate day of the treatment period) for each animal. The statistical comparison was done by using a two-sided unpaired Student's t-test.

[2] = test system: spontaneously hypertensive rat; assay: Telemetric blood pressure and heart rate in SHR; daglutril, simvastatin or simvastatin+daglutril via drinking water; assay type: in vivo; conditions: for DBP, change from baseline / HR, change from baseline / SBP, change from baseline: 24 h mean, day 23 minus baseline (day 3), intended 40 mg/kg/day simvastatin, 100 mg/kg/day daglutril, n = 4-5
Experimental: In a first experiment, after 3 days of monitoring under baseline (untreated) conditions, animals received daglutril via the drinking water. The intended daily dose was 100 mg/kg/day of daglutril. The concentration in drinking water was adjusted once per week, resulting in an average drug intake of 98 mg/kg/day.
Concentrations of simvastatin and daglutril in the drinking water were adjusted once per week, in order to ensure the intended daily intake of 40 and 100 mg/kg, respectively. The average daily water intake amounted to 33 and 36 ml/kg in the simvastatin and simvastatin+daglutril group, respectively, resulting in the uptake of 36 mg/kg/day of simvastatin in the simvastatin group, and 37 mg/kg/day of simvastatin and 93 mg/kg/day of daglutril in the combination group.
These 24 h means were exported to Excel®, and group mean values of systolic (SBP), diastolic blood pressure (DBP), heart rate (HR), and locomotor activity (ACT) were calculated daily. For the statistical analysis, the effects of simvastatin and simvastatin+daglutril were calculated by subtracting the baseline value (pre) measured on the last day prior to compound application (day 3) from that value measured on day 23 (i.e. on the penultimate day of the treatment period) for each animal. The statistical comparison was done by using univariate ANOVA at an error level of P<0.05.

[3] = test system: human subjects with congestive heart failure; assay: Single dose study of oral daglutril during 12-hour right heart catheterization; subgroup analysis by concomitant HMG CoA reductase inhibitor; assay type: in vivo; conditions: CHF patients, single oral dose of daglutril (200, 400 or 800 mg groups), with or without concomitant HMG CoA reductase inhibitor; value (SE)
Experimental: A randomized, placebo-controlled, parallel group, multi-center, single dose study of oral daglutril (vide supra) during 12-hour right heart catheterization in human subjects with congestive heart failure (=CHF) was performed. Each subject received one dose of daglutril or placebo. The study consisted of three visits (or study days when in-subjects were included). Ambulatory subjects were in hospital for two nights and one day. […]
The primary efficacy parameter was the maximum decrease from baseline over 6 hours for SVR and was compared between treatment groups using analysis of covariance, with the baseline value as covariate and center and NYHA classification as factors. […] In addition, the existence of a dose-response relationship for daglutril was evaluated by investigating linear, quadratic and cubic contrasts. The secondary efficacy parameter was the maximum change from baseline over 6 hours for PCWP and was analyzed in the same way as the primary variable. The maximum decrease from baseline over 12 hours, the change from for each individual time point and the adjusted area under the curve (=AUC) over 6 and 12 hours were analyzed for SVR and PCWP, using similar statistical methodology as for the main parameter of interest. […]

[4] = 24 h mean, day 25 minus baseline (day 3), intended 40 mg/kg/day atorvastatin, 100 mg/kg/day daglutril, n = 6

| SMILES | DBP, change from baseline [1, 4] | HR, change from baseline [1, 4] | SBP, change from baseline [1, 4] | Effect on blood pressure (both SBP and DBP) (in words) ([1]; SHR) | DBP, change from baseline [2] | HR, change from baseline [2] | SBP, change from baseline [2] | Effect on blood pressure (in words) ([2]; SHR) | Placebo corrected mean change of MPAP (average 0.5-6 hrs) [3] |
| --- | --- | --- | --- | --- | --- | --- | --- | --- | --- |
| CC(C)c1c(C(=O)Nc2ccccc2)c(-c2ccccc2)c(-c2ccc(F)cc2)n1CC[C@@H](O)C[C@@H](O)CC(=O)O [Atorvastatin, atorvastatin] | 3.2 mmHg | -25.3 min⁻¹ | 3.5 mmHg | increase in blood pressure |  |  |  |  |  |
| CCC(C)(C)C(=O)O[C@H]1C[C@@H](C)C=C2C=C[C@H](C)[C@H](CC[C@@H]3C[C@@H](O)CC(=O)O3)[C@H]21 [Simvastatin, simvastatin] |  |  |  |  | 4.7 mmHg | -4.2 min⁻¹ | 4.2 mmHg |  |  |
| CCOC(=O)C(CCc1ccccc1)CC1(C(=O)NC2CCc3ccccc3N(CC(=O)O)C2=O)CCCC1 (stereo not drawn) [daglutril, 2-[1-(1-carboxymethyl-2-oxo-2,3,4,5-tetrahydro-1H-benzo[b]azepin-3-ylcarbamoyl)-cyclopentylmethyl]-4-phenyl-butyric acid ethyl ester] |  |  |  |  | 2.0* mmHg | -6.0 min⁻¹ | −0.3* mmHg | no effect on blood pressure | −2.26 (1.05) mm Hg |
